Drawing on a melting point compilation (Tetko et al.; mined from patent text by program, amines drawn as free bases though some values may be those of a salt), this text covers melting point for 64 compounds.

As to `Cc1nc2c(s1)C(=O)c1ccccc1C2=O`, the melting point (as a rule, the temperature, or range, at which the solid turns liquid) was above 260 °C. As for `CC1(C)CC(Nc2nc(NC3CC(C)(C)NC(C)(C)C3)nc(NC3CC(C)(C)NC(C)(C)C3)n2)CC(C)(C)N1`, the melting point is 219 to 221 °C. Turning to `COC(=O)Nc1cn2cc(S(=O)c3ccccc3)ccc2n1` (centres undefined), the melting point lay in the range of 247 to 248 °C. The compound `O=C1c2ccccc2C(=O)N1n1cccc1-c1ccccc1` registered a melting point of 168 to 170 °C.

`COc1c(C(=O)O)nc(N2CCCCS2(=O)=O)n(C)c1=O` had a melting point of 180 to 181 °C.

In turn, `CCCCc1oc2ccc(CO)cc2c1C1(c2ccc(O)cc2)OCCO1` displayed a melting point of 100 to 101 °C. As for `CCOC(=O)CN1CCN(c2cc3c(cc2Cl)c(=O)c(C(=O)O)cn3CC)CC1`, the figure is 230 to 232 °C. On to `C=C(C)c1c(OC)cc(Cc2cnc(N)nc2N)cc1OC`, for which the melting point was in the range of 228 to 229 °C. In turn, `COC(=O)CNC(=O)n1ccc(O)cc1=O` yielded a melting point of 124 to 126 °C. Compound `c1ccc(CN2CCC(Oc3ccccn3)CC2)cc1` displayed a melting point of 75 °C. The compound `O=C(O)CSC(CCCc1ccccc1)c1ccc(OCc2ccc3ccccc3n2)cc1` (centres undefined) came in with a melting point of 118 to 119 °C. `N#Cc1cc(-c2c(C(N)=O)ccn2-c2ccc(F)cc2)ccc1OCC(F)(F)F` showed a melting point of 227 to 228 °C. The compound `CSc1ccc(C(=O)c2c(C)sc3c2CCC3C(=O)O)cc1` (centres undefined) came in with a melting point of 131 to 133 °C. Consider `CC(C)(C)NC(=O)[C@@H]1CCCN1C(=O)[C@@H](O)[C@H](Cc1ccccc1)N(Cc1ccccc1)Cc1ccccc1`, for which the melting point was 122 to 123 °C. The compound `COc1cc(C)nc(NC(=O)NS(=O)(=O)c2ccccc2C(CF)OC(C)=O)n1` (centres undefined) had a melting point of 198 to 200 °C.

In turn, `CC(C)Cn1c(=O)n(C)c(=O)c2c(N)ncnc21` registered a melting point of 192 to 193 °C. `COc1ccc2c(n1)c(CCNC(=O)c1ccco1)c1n2CCCO1` gave a melting point of 139 to 140 °C. For `O=C(Nc1ccccc1)O[C@@H]1CN=C(c2cccs2)O[C@H]1c1ccccc1` (racemic), the melting point was determined as 98 °C. Next, `CC12CCCc3c1n(c1ccccc31)C(=O)CC2` (centres undefined): 93 to 95 °C; `O=C(CCl)NCCCn1cc(-c2ccccc2)c2ccccc2c1=O`: 140 °C; `CS(=O)(=O)OCCc1c2ccccc2n2c1[nH]c(=O)c1ccccc12`: 196 to 198 °C. In turn, `COc1ccc(OC)c(Nc2ncc(C(=O)O)c(=O)[nH]2)c1` registered a melting point of 260 to 262 °C. In turn, `OCCCc1ccc2oc(Cc3ccc4ccccc4c3)nc2c1` had a melting point of 102 to 103 °C. Regarding `N#C[C@@H]1C[C@H](F)CN1C(=O)CCl`, the melting point fell in the range of 97 to 100 °C.

In turn, `COC(=O)c1ccccc1S(=O)(=O)NC(=O)Nc1nc(OC)cc(OC)n1` gave a melting point of 185 to 190 °C. For `CCCc1c(OCCOc2cccc(C(=O)NCCCCc3cccnc3)c2)ccc(C(C)=O)c1O`, the melting point turned out to be 90 °C.

`C[C@H]1[C@H](N2C(=O)c3ccccc3C2=O)C(=O)N1O` (relative stereo): the melting point was 94 to 96 °C. Take `COCCc1nc2cnc3cc(Br)cnc3c2n1CC(C)(C)O`: the melting point came out at 125 °C.

The compound `Cc1ccccc1CC(=NC#N)NC(NC(=O)Cc1cccnc1)C(C)(C)C` (centres undefined) returned a melting point of 84 to 86 °C. As for `O=C(O)c1cc(Cl)cc2c1O[C@@H]1C=CCC[C@H]21` (relative stereo), the melting point was in the range of 147 to 150 °C. The compound `CC(C)c1ccc(S(=O)(=O)c2ccccc2)cc1S(=O)(=O)NC1CCN(C(=O)c2cccc(F)c2)CC1` showed a melting point of 215 to 218 °C. Turning to `COc1ccc(C2(C)C(=O)c3c(N4CCN(C)CC4)cc(Cl)cc3N(Cc3cccc(N)c3)C2=O)cc1` (centres undefined), the melting point is 90 to 93 °C.

In turn, `NC(C(=O)c1ccccc1)[N+](=O)[O-]` (centres undefined) yielded a melting point of 110 to 111 °C. On to `CSc1ccc(-c2nc(SC)c(C#N)c(=O)n2-c2ccc(F)cc2)cc1`, for which the melting point was in the range of 219 to 221 °C. `Cc1cc(C=NNC(=O)c2ccc(O)cc2)oc1C`: the melting point turned out to be 251 °C.

The compound `CC(CCCC(C)(C)O)C1CCC2C3CC=C4CC(O)CC(O)C4(C)C3CCC12C` (centres undefined) registered a melting point of 170 to 172 °C. As for `O=S1(=O)CCCSC(S)=N1`, the figure is 134 °C; as for `CN1C(=O)C2(COc3cc4c(cc32)OCO4)c2ccccc21` (centres undefined), 142 to 144 °C. `CCN(C)c1nc(-c2ccncc2)nc2sc(C#N)c(C)c12` yielded a melting point of 162 to 164 °C. `CON(C)C(=O)Nc1ccc(OCCc2ccc(C)cc2C)cc1` yielded a melting point of 95 to 95.5 °C. `CC(C)(Cc1c(Cc2ccccc2)c2cc(OCc3ccc4ccccc4n3)ccc2n1Cc1ccc(Cl)cc1)C(=O)O` returned a melting point of 178 °C. The compound `COCCNc1nc(C)c(C)c(N2CCc3ccccc3C2C)n1` (centres undefined) showed a melting point of 64 to 67 °C.

`Cc1ccc(OCC(O)CNC(C)(C)C)c([N+](=O)[O-])c1[N+](=O)[O-]` (centres undefined): the melting point was in the range of 104 to 106 °C. As to `COC(=O)C=Cc1ccc(OCc2nc(-c3ccccc3)c(-c3ccccc3)o2)cc1`, the melting point lay in the range of 159 to 161 °C. Consider `c1cc2c(N3CCNCC3)csc2cn1`, for which the melting point fell in the range of 126 to 128 °C. Compound `COc1ccc2c(-c3ccc(F)cc3F)noc2c1Cl` had a melting point of 189 to 191 °C. As for `COc1ccc(CCCC(O)COc2ccc(OCc3ncc[nH]3)cc2)cc1OC` (centres undefined), the melting point was 129 to 130 °C. The compound `CCCCCCCCCCCCNC(=O)c1cc(Br)c(OCCNC(=O)OC)c(-c2cccc(C(F)(F)F)c2)c1` gave a melting point of 79.6 to 80.5 °C.

Consider `CC12CCC(C1)C(C)(C)C2(S)CCN` (centres undefined), for which the melting point lay within 42 to 43 °C.

`Cc1ccc2nc([C@@H](C)NC(=O)OC(C)(C)C)sc2c1` gave a melting point of 101 to 104 °C. Consider `O=C(c1ccc(O)c(Cl)c1)N1CC=CCC1`, for which the melting point is 186 to 189 °C. `Nc1cccc(-c2ccc(CC3CCCCN3Cc3ccccc3)cc2)n1` (centres undefined) yielded a melting point of 70 to 85 °C. On to `CCC1Cc2cc(OC)c(Cl)c(Cl)c2C1=O` (centres undefined), for which the melting point was 146 to 147 °C. As for `CCn1ncc2c(NCC3CCCCC3)c3cc(Br)ccc3nc21`, the figure is 158 to 160 °C; as for `COc1cc(I)cc(OC)c1SC`, 103 to 104 °C. In turn, `COC(=O)c1nc2cc(OC)ccc2c(O)c1C(=O)OC` returned a melting point of 202 to 204 °C. On to `Cc1c(F)c(F)c(F)c2c1c(=O)c(C(=O)O)cn2CCO`, for which the melting point was in the range of 244 to 247 °C. Compound `NC(=O)NN=C1CC(O)C(C=Cc2ccccc2)=C1CCCCCCC(=O)O` (centres undefined) had a melting point of 208 to 210 °C. Turning to `COC(=O)[C@@H]1O[C@@H](c2ccccc2)N(NS(=O)(=O)c2ccc([N+](=O)[O-])cc2)[C@H]1c1ccccc1`, the melting point fell in the range of 118 to 120 °C. The compound `COc1ccc(CNc2ncnc3c2ncn3C2OC(CN=[N+]=[N-])C(O)C2O)cc1` (centres undefined) registered a melting point of 191 °C. Compound `COc1cccc2c(N3CCNCC3)cc(C(F)(F)F)nc12` came in with a melting point of 130 °C. Regarding `CC(=O)Nc1cccc(-n2ccnc2C)c1`, the melting point lay in the range of 238 to 240 °C.

As to `N#CC1CCN1C(c1ccccc1)c1ccccc1` (centres undefined), the melting point is 104 to 105 °C.

`CCCN1C(=O)C2CC(c3ccc([N+](=O)[O-])cc3)(C2)C1=O` had a melting point of 149 to 151 °C.
